Experimental data: ChEMBL document CHEMBL3879902, “Compounds and methods for kinase modulation, and indications thereof” (2012)

How the values were obtained:
[1] = Aqueous solubility of the compound in hepes buffer at pH 7.4; format: physicochemical
[2] = Aqueous solubility of the compound in simulated intestinal fluid at pH 4.5; format: ADME; conditions: simulated gi fluid
[3] = Aqueous solubility of the compound in simulated intestinal fluid at pH 6.8; format: ADME; conditions: simulated gi fluid
[4] = Aqueous solubility of the compound in simulated gastric fluid at pH 1.5; format: ADME; conditions: simulated gi fluid

solubility [1]	solubility [2]	solubility [3]	solubility [4]	SMILES
Insoluble	Insoluble	Insoluble	Insoluble	CCCS(=O)(=O)Nc1ccc(F)c(C(=O)c2c[nH]c3ncc(-c4ccc(C(=O)NCC)nc4)cc23)c1F
Insoluble	Insoluble	Insoluble	Insoluble	CCCS(=O)(=O)Nc1ccc(F)c(C(=O)c2c[nH]c3ncc(-c4ccc(S(=O)(=O)NC5CC5)cc4)cc23)c1F
Soluble	Insoluble	Soluble	Soluble	CCCS(=O)(=O)Nc1ccc(F)c(C(=O)c2c[nH]c3ncc(-c4ccc(N(C)C)nc4)cc23)c1F
Insoluble	Insoluble	Insoluble	Insoluble	CCCS(=O)(=O)Nc1ccc(F)c(C(=O)c2c[nH]c3ncc(-c4ccc(NS(C)(=O)=O)cc4)cc23)c1F
Insoluble	Insoluble	Insoluble	Insoluble	CCCS(=O)(=O)Nc1ccc(F)c(C(=O)c2c[nH]c3ncc(-c4ccc(F)nc4)cc23)c1F
Insoluble	Insoluble	Insoluble	Insoluble	CCCS(=O)(=O)Nc1ccc(F)c(C(=O)c2c[nH]c3ncc(-c4ccc(S(=O)(=O)N5CCOCC5)cc4)cc23)c1F
Insoluble	Insoluble	Insoluble	Soluble	CCCS(=O)(=O)Nc1ccc(F)c(C(=O)c2c[nH]c3ncc(-c4ccc(NC(C)=O)nc4)cc23)c1F
Soluble	Soluble	Soluble	Soluble	CCCS(=O)(=O)Nc1ccc(F)c(C(=O)c2c[nH]c3ncc(-c4cncnc4)cc23)c1F
Soluble	Insoluble	Insoluble	Soluble	CCCS(=O)(=O)Nc1ccc(F)c(C(=O)c2c[nH]c3ncc(-c4cncc(S(C)(=O)=O)c4)cc23)c1F
Insoluble	Insoluble	Insoluble	Insoluble	CCCS(=O)(=O)Nc1ccc(F)c(C(=O)c2c[nH]c3ncc(-c4ccnc(F)c4)cc23)c1F

Continued, compound first:

SMILES	solubility [1]	solubility [2]	solubility [3]	solubility [4]
CCCS(=O)(=O)Nc1cccc(C(=O)c2c[nH]c3ncc(-c4cnc(OC)nc4)cc23)c1F	Insoluble	Insoluble	Insoluble	Insoluble
COc1ncc(-c2cnc3[nH]cc(C(=O)c4c(F)ccc(NS(=O)(=O)c5cccc(F)c5)c4F)c3c2)cn1	Soluble	Insoluble	Insoluble	Insoluble
N#Cc1cnc2[nH]cc(C(=O)c3cccc(NS(=O)(=O)c4cc(F)ccc4F)c3F)c2c1	Soluble	Insoluble	Soluble	Insoluble
COc1cnc2[nH]cc(C(=O)c3c(F)ccc(NS(=O)(=O)c4ccccc4F)c3F)c2c1	Soluble	Insoluble	Insoluble	Insoluble
CCCS(=O)(=O)Nc1ccc(F)c(C(=O)c2c[nH]c3ncc(-c4cnc(N5CCCC5)nc4)cc23)c1F	Insoluble	Insoluble	Insoluble	Soluble
CCCS(=O)(=O)Nc1ccc(F)c(C(=O)c2c[nH]c3ncc(-c4ccc(N5CCCC5)nc4)cc23)c1F	Insoluble	Insoluble	Insoluble	Insoluble
O=C(c1c(F)ccc(NS(=O)(=O)c2cccnc2)c1F)c1c[nH]c2ncc(Cl)cc12	Soluble	Soluble	Soluble	Soluble
O=C(c1c(F)ccc(NS(=O)(=O)c2cccc(F)c2)c1F)c1c[nH]c2nccc(Cl)c12	Soluble	Soluble	Soluble	Insoluble
COc1ccnc2[nH]cc(C(=O)c3c(F)ccc(NS(=O)(=O)c4ccccc4F)c3F)c12	Soluble	Soluble	Soluble	Soluble
CCCS(=O)(=O)Nc1ccc(F)c(C(=O)c2c[nH]c3ncc(-c4ccc(C#CCN(CC)CC)nc4)cc23)c1F	Insoluble	Insoluble	Insoluble	Insoluble
